# Assay: 12-week placebo-controlled study: plasma fatty acid concentrations, ratios and proportions (GC/FID)
# Type: in vivo, human
# Conditions: for AA plasma concentration, change from baseline (LS mean (SE)) / AA plasma concentration, end-of-treatment (mean) / DHA plasma concentration, change from baseline (LS mean (SE)) / DHA plasma concentration, end-of-treatment (mean) / Linoleic plasma concentration, change from baseline (LS mean (SE)) / Linoleic plasma concentration, end-of-treatment (mean) / Oleic plasma concentration, change from baseline (LS mean (SE)) / Oleic plasma concentration, end-of-treatment (mean) / Palmitic plasma concentration, change from baseline (LS mean (SE)) / Palmitic plasma concentration, end-of-treatment (mean) / Proportion of monounsaturated fatty acids to total fatty acids in plasma, change from baseline (LS mean (SE)) / Proportion of monounsaturated fatty acids to total fatty acids in plasma, end-of-treatment (mean (SD)) / Proportion of saturated fatty acids to total fatty acids in plasma, change from baseline (LS mean (SE)) / Proportion of saturated fatty acids to total fatty acids in plasma, end-of-treatment (mean (SD)) / Proportion of total omega-3 fatty acids to total fatty acids in plasma, change from baseline (LS mean (SE)) / Proportion of total omega-3 fatty acids to total fatty acids in plasma, end-of-treatment (mean (SD)) / Proportion of total omega-6 fatty acids to total fatty acids in plasma, change from baseline (LS mean (SE)) / Proportion of total omega-6 fatty acids to total fatty acids in plasma, end-of-treatment (mean (SD)) / Ratio of AA/EPA in plasma, change from baseline (LS mean (SE)) / Ratio of AA/EPA in plasma, end-of-treatment (mean) / Ratio of n-3/n-6 FA in plasma, change from baseline (LS mean (SE)) / Ratio of n-3/n-6 FA in plasma, end-of-treatment (mean) / Stearic plasma concentration, change from baseline (LS mean (SE)) / Stearic plasma concentration, end-of-treatment (mean): week 12
# Experimental: A multi-center, placebo-controlled randomized, double-blind, 12-week study with an open-label extension is performed to evaluate the efficacy and safety of AMR101 in patients with fasting triglyceride levels ≧500 mg/dL. The primary objective of the study is to determine the efficacy of AMR101 2 g daily and 4 g daily, compared to placebo, in lowering fasting TG levels in patients with fasting TG levels ≧500 mg/dL and ≦1500 mg/dL (≧5.65 mmol/L and ≦16.94 mmol/L).
# Eligible patients will be randomly assigned at Visit 4 (Week 0) to receive orally AMR101 2 g daily, AMR101 4 g daily, or placebo for the 12-week double-blind treatment period. AMR101 is provided in 1 g liquid-filled, oblong, gelatin capsules. The matching placebo capsule is filled with light liquid paraffin and contains 0 g of AMR101. During the double-blind treatment period, patients will take 2 capsules (AMR101 or matching placebo) in the morning and 2 in the evening for a total of 4 capsules per day. Patients in the AMR101 2 g/day treatment group will receive 1 AMR101 1 g capsule and 1 matching placebo capsule in the morning and in the evening. Patients in the AMR101 4 g/day treatment group will receive 2 AMR101 1 g capsules in the morning and evening.
# Lipids were extracted from plasma and RBC suspensions and converted into fatty acid methyl esters for analysis using a standard validated gas chromatography/flame ionization detection method. Fatty acid parameters were compared between EPA treatment groups and placebo using an ANCOVA model with treatment, gender, type of statin therapy, and presence of diabetes as factors, and the baseline parameter value as a covariate. LSMs, SEs, and 2-tailed 95% confidence intervals for each treatment group and for each comparison were determined.
# [1] = 2 g/day vs placebo, week 12, P <0.0001
# [2] = 4 g/day vs placebo, week 12, P <0.0001
structure (smiles),measurement,setting,value
"CC/C=C\C/C=C\C/C=C\C/C=C\C/C=C\CCCC(=O)OCC [IPE, Icosapent ethyl]",Dose dependence of EPA concentration in plasma (in words),"2 g/day or 4 g/day, 12 weeks","significantly increased EPA concentrations in a linear, dose-dependent fashion"
same,"Proportion of monounsaturated fatty acids to total fatty acids in plasma, mean placebo-adjusted percent change from baseline","2 g/day vs placebo, week 12, P 0.0009",−7.4%
same,"Palmitic plasma concentration, mean placebo-adjusted percent change from baseline","2 g/day vs placebo, week 12, P 0.0011",−23.9%
same,"Oleic plasma concentration, mean placebo-adjusted percent change from baseline","2 g/day vs placebo, week 12, P 0.0023",−23.8%
same,"Stearic plasma concentration, mean placebo-adjusted percent change from baseline","2 g/day vs placebo, week 12, P 0.0040",−20.7%
same,"Linoleic plasma concentration, mean placebo-adjusted percent change from baseline","2 g/day vs placebo, week 12, P 0.0136",−15.2%
same,"Proportion of total omega-6 fatty acids to total fatty acids in plasma, mean placebo-adjusted percent change from baseline","2 g/day vs placebo, week 12, P 0.3044",3.2%
same,"DHA plasma concentration, mean placebo-adjusted percent change from baseline","2 g/day vs placebo, week 12, P 0.7217",−2.3%
same,"Proportion of saturated fatty acids to total fatty acids in plasma, mean placebo-adjusted percent change from baseline","2 g/day vs placebo, week 12, P 0.8076",−0.4%
same,"AA plasma concentration, mean placebo-adjusted percent change from baseline",[1],−16.4%
same,"Proportion of total omega-3 fatty acids to total fatty acids in plasma, mean placebo-adjusted percent change from baseline",[1],68.4%
same,"Ratio of AA/EPA in plasma, mean placebo-adjusted percent change from baseline",[1],−88.4%
same,"Ratio of n-3/n-6 FA in plasma, mean placebo-adjusted percent change from baseline",[1],76.8%
same,"AA plasma concentration, change from baseline (LS mean (SE))",2 g/day,−36.7 (10.6)
same,"AA plasma concentration, end-of-treatment (mean)",2 g/day,327.3
same,"DHA plasma concentration, change from baseline (LS mean (SE))",2 g/day,−13.1 (6.2)
same,"DHA plasma concentration, end-of-treatment (mean)",2 g/day,104.8
same,"Linoleic plasma concentration, change from baseline (LS mean (SE))",2 g/day,−227 (121.4)
same,"Linoleic plasma concentration, end-of-treatment (mean)",2 g/day,1981
same,"Oleic plasma concentration, change from baseline (LS mean (SE))",2 g/day,−414 (142.9)
same,"Oleic plasma concentration, end-of-treatment (mean)",2 g/day,2018
same,"Palmitic plasma concentration, change from baseline (LS mean (SE))",2 g/day,−353 (126.9)
same,"Palmitic plasma concentration, end-of-treatment (mean)",2 g/day,2015
same,"Proportion of monounsaturated fatty acids to total fatty acids in plasma, change from baseline (LS mean (SE))",2 g/day,−1.4 (0.5) mol %
same,"Proportion of monounsaturated fatty acids to total fatty acids in plasma, end-of-treatment (mean (SD))",2 g/day,29.5 (4.9) mol %
same,"Proportion of saturated fatty acids to total fatty acids in plasma, change from baseline (LS mean (SE))",2 g/day,−0.3 (0.5) mol %
same,"Proportion of saturated fatty acids to total fatty acids in plasma, end-of-treatment (mean (SD))",2 g/day,35.8 (3.7) mol %
same,"Proportion of total omega-3 fatty acids to total fatty acids in plasma, change from baseline (LS mean (SE))",2 g/day,2.0 (0.2) mol %
same,"Proportion of total omega-3 fatty acids to total fatty acids in plasma, end-of-treatment (mean (SD))",2 g/day,4.8 (1.3) mol %
same,"Proportion of total omega-6 fatty acids to total fatty acids in plasma, change from baseline (LS mean (SE))",2 g/day,−0.2 (0.7) mol %
same,"Proportion of total omega-6 fatty acids to total fatty acids in plasma, end-of-treatment (mean (SD))",2 g/day,29.8 (6.8) mol %
same,"Ratio of AA/EPA in plasma, change from baseline (LS mean (SE))",2 g/day,−9.6 (0.5)
same,"Ratio of AA/EPA in plasma, end-of-treatment (mean)",2 g/day,2.3
same,"Ratio of n-3/n-6 FA in plasma, change from baseline (LS mean (SE))",2 g/day,0.07 (0.009)
same,"Ratio of n-3/n-6 FA in plasma, end-of-treatment (mean)",2 g/day,0.17
same,"Stearic plasma concentration, change from baseline (LS mean (SE))",2 g/day,−57.8 (33.3)
same,"Stearic plasma concentration, end-of-treatment (mean)",2 g/day,541.5
same,"Oleic plasma concentration, mean placebo-adjusted percent change from baseline","4 g/day vs placebo, week 12, P 0.0001",−31.9%
same,"Stearic plasma concentration, mean placebo-adjusted percent change from baseline","4 g/day vs placebo, week 12, P 0.0002",−28.4%
same,"Linoleic plasma concentration, mean placebo-adjusted percent change from baseline","4 g/day vs placebo, week 12, P 0.0003",−23.7%
same,"Proportion of monounsaturated fatty acids to total fatty acids in plasma, mean placebo-adjusted percent change from baseline","4 g/day vs placebo, week 12, P 0.0008",−7.7%
same,"Proportion of saturated fatty acids to total fatty acids in plasma, mean placebo-adjusted percent change from baseline","4 g/day vs placebo, week 12, P 0.1049",−2.8%
same,"DHA plasma concentration, mean placebo-adjusted percent change from baseline","4 g/day vs placebo, week 12, P 0.7115",2.4%
same,"Proportion of total omega-6 fatty acids to total fatty acids in plasma, mean placebo-adjusted percent change from baseline","4 g/day vs placebo, week 12, P 0.8846",0.5%
same,"AA plasma concentration, mean placebo-adjusted percent change from baseline",[2],−26.8%
same,"Palmitic plasma concentration, mean placebo-adjusted percent change from baseline",[2],−34.4%
same,"Proportion of total omega-3 fatty acids to total fatty acids in plasma, mean placebo-adjusted percent change from baseline",[2],132.7%
same,"Ratio of AA/EPA in plasma, mean placebo-adjusted percent change from baseline",[2],−99.4%
same,"Ratio of n-3/n-6 FA in plasma, mean placebo-adjusted percent change from baseline",[2],145.8%
same,"AA plasma concentration, change from baseline (LS mean (SE))",4 g/day,−76.2 (11.3)
same,"AA plasma concentration, end-of-treatment (mean)",4 g/day,280.3
same,"DHA plasma concentration, change from baseline (LS mean (SE))",4 g/day,−4.5 (6.6)
same,"DHA plasma concentration, end-of-treatment (mean)",4 g/day,118.1
same,"Linoleic plasma concentration, change from baseline (LS mean (SE))",4 g/day,−309 (128.1)
same,"Linoleic plasma concentration, end-of-treatment (mean)",4 g/day,1882
same,"Oleic plasma concentration, change from baseline (LS mean (SE))",4 g/day,−546 (154.0)
same,"Oleic plasma concentration, end-of-treatment (mean)",4 g/day,1885
same,"Palmitic plasma concentration, change from baseline (LS mean (SE))",4 g/day,−560 (138.1)
same,"Palmitic plasma concentration, end-of-treatment (mean)",4 g/day,1789
same,"Proportion of monounsaturated fatty acids to total fatty acids in plasma, change from baseline (LS mean (SE))",4 g/day,−1.7 (0.5) mol %
same,"Proportion of monounsaturated fatty acids to total fatty acids in plasma, end-of-treatment (mean (SD))",4 g/day,28.7 (4.0) mol %
same,"Proportion of saturated fatty acids to total fatty acids in plasma, change from baseline (LS mean (SE))",4 g/day,−1.2 (0.5) mol %
same,"Proportion of saturated fatty acids to total fatty acids in plasma, end-of-treatment (mean (SD))",4 g/day,34.8 (3.5) mol %
same,"Proportion of total omega-3 fatty acids to total fatty acids in plasma, change from baseline (LS mean (SE))",4 g/day,3.8 (0.2) mol %
same,"Proportion of total omega-3 fatty acids to total fatty acids in plasma, end-of-treatment (mean (SD))",4 g/day,6.7 (1.9) mol %
same,"Proportion of total omega-6 fatty acids to total fatty acids in plasma, change from baseline (LS mean (SE))",4 g/day,−0.9 (0.7) mol %
same,"Proportion of total omega-6 fatty acids to total fatty acids in plasma, end-of-treatment (mean (SD))",4 g/day,29.8 (6.2) mol %
same,"Ratio of AA/EPA in plasma, change from baseline (LS mean (SE))",4 g/day,−10.8 (0.5)
same,"Ratio of AA/EPA in plasma, end-of-treatment (mean)",4 g/day,1.2
same,"Ratio of n-3/n-6 FA in plasma, change from baseline (LS mean (SE))",4 g/day,0.4 (0.009)
same,"Ratio of n-3/n-6 FA in plasma, end-of-treatment (mean)",4 g/day,0.24
same,"Stearic plasma concentration, change from baseline (LS mean (SE))",4 g/day,−101 (35.4)
same,"Stearic plasma concentration, end-of-treatment (mean)",4 g/day,500.3

# Source: patent US20140213648A1, “METHODS OF INCREASING EPA BLOOD LEVELS” (priority 2012, published 2014)
